This passage reports itching and skin moisture results from patent US20100222309A1, “SKIN PROPERTY-IMPROVING THERAPEUTIC AGENT COMPRISING A MORPHINAN DERIVATIVE OR ANY OF ITS PHARMACOLOGICALLY PERMISSIBLE ACID ADDITION SALTS AS AN ACTIVE INGREDIENT” (TORAY INDUSTRIES, INC., priority 2007, published 2010).

This assay deals with itch patients treated with hemodialysis. Kind of assay: Oral administration of compound 1 soft capsules to itch patients treated with hemodialysis; skin properties and itching observed.
[1] abbreviates: one of the patients, after end of administration.

On to `CN(C(=O)/C=C/c1ccoc1)[C@@H]1CC[C@@]2(O)[C@H]3Cc4ccc(O)c5c4[C@@]2(CCN3CC2CC2)[C@H]1O5.Cl` [compound 1], for which, under setting [1], the itching result is reported as “began to feel itching again” and the skin moisture result was “began to have dry skin”. Further, under “patient, two capsules (5.0 μg) oral, after start of administration”, the itching entry was “began to feel less itching”.
